US20230144898A1, “INHIBITOR OF ASPARTIC ACID SYNTHESIS IN TUMOR CELLS, INHIBITOR OF SPHEROID FORMATION OF TUMOR CELLS, INHIBITOR OF TUMOR CELL METASTASIS, ACTIVITY ENHANCER OF GLYCOLYTIC INHIBITOR, AND PHARMACEUTICAL COMPOSITION FOR SUPPRESSING AND/OR PREVENTING TUMOR METASTASIS” (CCI HOLDINGS INC., priority 2020, published 2023)

Experiments:
[1] = system: mouse-derived metastatic breast cancer cells Jyg-MC(B); assay: Mouse natural metastasis model (Test Example 12); assay type: in vivo
From the text: In general, the metastasis process follows the course of primary tumor formation, invasion of blood vessels and lymphatic vessels, and fixation and proliferation to lung. Here, the model prepared in Test Example 2 verifies only kinetics of tumor cells after entry into the blood vessel, and the metastasis phenomenon occurring in the actual clinical example also includes other processes in addition to invasion of blood vessels and lymphatic vessels from the primary tumor. Thereupon, in this test example, a subcutaneous tumor (a primary tumor) was generated in a mouse, and a model in which the tumor cells metastasized to lung following all metastasis processes (a natural metastasis model) was prepared.
Specifically, to start with, in order to prepare a natural metastasis model, a nude mouse (BALBc nu/nu, female, 4 weeks old, purchased from Japan SLC) was subcutaneously inoculated with mouse-derived metastatic breast cancer cells Jyg-MC(B). After 24 days of incubation, neopetasin (NP) was administered intraperitoneally at a dose of 50 mg/kg and treated a total of 6 times for 16 days (inoculation at 0, 2, 4, 6, 10, 14 days, respectively). Note that treatment procedure at this time is illustrated in FIG. 13.

[2] = system: mitochondrial respiratory chain Complex I; assay: MitoCheck Complex Activity Assay (Test Example 9); assay type: biochemical; conditions: II, II/III, IV and V tested
Protocol: Specifically, using the MitoCheck Complex Activity Assay Kit (Cayman Chemical Company, Ann Arbor, MI, USA), extent of relative activity of each of Complex I, Complex II, Complex II/III, Complex IV and Complex V constituting the mitochondrial respiratory chain that was reduced by neopetasin treatment was examined. Furthermore, as a negative control section, DMSO was administered to perform the same experiment. In addition, as a positive control section, rotenone (Complex I), TTFA (Complex II), antimycin A (Complexes II/III), KCN (Complex IV), and oligomycin (Complex V) were each administered, and the same experiment was conducted.

B16F10 cells = assay: Western blotting, temporal changes of AMPK, FAK, Akt, ERK1/2 (Test Example 11); assay type: cell-based, mouse; conditions: 3 µM; 3, 8, 24 and 56 hours
Protocol: Specifically, for B16F10 cells treated with neopetasin (3 µM) or metformin (5000 µM) through the same method as in Test Example 1, the cells were recovered at each of 3 hours, 8 hours, 24 hours, and 56 hours after the treatment with these compounds, and the contents of various proteins were measured by Western blotting through the same method as in Test Example 10. Furthermore, DMSO was administered to the negative control section, and the same experiment was performed.

[3] = 50 mg/kg intraperitoneally, 6 times for 16 days

## C=C(C)[C@H]1C[C@@]2(C)C(=CC1=O)CC[C@@H](OC(=O)/C(C)=C\C)[C@@H]2C [Neopetasin, neopetasin]
[1]; [3]
  lung metastasis lesions: significant decrease in lung metastasis lesions
  lymph node metastasis (weight of the axillary lymph node): exhibits an inhibitory effect on lymph node metastasis
[1]; excluding examples without lymph node swelling
  degree and weight of lymph node swelling: decreased
[2]
  relative activity of mitochondrial respiratory chain complexes: selectively reduced only the relative activity of the mitochondrial respiratory chain Complex I
B16F10 cells
  AMPK change: changes at the earliest stage (3 hours)
  Akt and ERK: inactivated
  FAK: inactivated
